Marks after values point to notes of the source that are not given here.
Legend:
glioma cells SHG-44 = test: Lactic acid released by glioma cells (glycolysis); assay type: cell-based, human
Procedure: Human glioma cell strains (U87-MG, KNS-89, SHG-44) were respectively incubated in culture media containing 0.8 mM of trisodium fructose-1,6-bisphosphate salt, and 1.6 mM of trisodium fructose-1,6-bisphosphate salt, and 1.6 mM of 2-deoxyglucose, and the contents of lactic acid as the final glycolytic product released by the cells in the culture media were measured after 12 h, 24 h, 36 h, and 48 h. […] Human glioma cell strain (U87-MG) was incubated in the culture medium containing 0.8 mM of trisodium fructose-1,6-bisphosphate salt for 1 h, 3 h, 6 h, 12 h, 24 h, 36 h, and 48 h, and level changes of key metabolic enzymes in the glycolytic pathway of cells were measured by Western Blot at the respective time points.

C6 = test: Mitochondrial oxidative phosphorylation in glioma cells (ATP/ADP, NADH/NAD+, ATP); assay type: cell-based, rat
U87MG [1] = test: 13C-glucose tracing: glycolysis, pentose phosphate, one-carbon and nucleic acid synthesis intermediates (LC-MS/MS); assay type: cell-based, human; conditions: 1.6 mM, 36 h
Procedure: Human glioma cell strain (U87MG) was incubated in a medium containing ^13C-labeled glucose (U-^13C-Glc) and treated with 1.6 mM of trisodium fructose-1,6-bisphosphate for 36 h, and then, intermediate products of intracellular glycolysis pathway, pentose phosphate pathway, “one-carbon unit” metabolic pathway, and nucleic acid de novo synthesis pathway were measured using liquid-mass spectrometry (LC-MS/MS).

U87MG [2] = test: 13C-glucose tracing: tricarboxylic acid circulation intermediates, derived amino acids, nucleotide synthesis (LC-MS/MS); assay type: cell-based, human; conditions: 1.6 mM, 36 h
Procedure: Human glioma cell strain (U87MG) was incubated in a medium containing ^13C-labeled glucose (U-^13C-Glc) and treated with 1.6 mM of trisodium fructose-1,6-bisphosphate for 36 h, and then using liquid-mass spectrometry (LC-MS/MS), intracellular tricarboxylic acid circulation intermediates, tricarboxylic acid circulation intermediates-derived amino acids and nucleotide de novo synthesis pathway intermediates were measured.

U87MG [3] = test: Tricarboxylic acid circulation intermediates in cytoplasm and mitochondria (LC-MS/MS); assay type: cell-based, human; conditions: 1.6 mM, 36 h
Procedure: (§1) Human glioma cell strain (U87MG) was cultured in a medium containing 1.6 mM of trisodium fructose-1,6-bisphosphate for 36 h, and then cytoplasm and mitochondria were separated. Levels of tricarboxylic acid circulation intermediates in cytoplasm and mitochondria were respectively measured by LC-MS/MS.

U87MG [4] = test: Western Blot of metabolic enzymes and epigenetic proteins, 5-hmC immunocytochemistry; assay type: cell-based, human; conditions: 1.6 mM
Procedure: as §1
Human glioma cell strain (U87MG) was respectively cultured in the medium containing 1.6 mM of trisodium fructose-1,6-bisphosphate for 0, 1, 3, 6, 12, 24, 36, and 48 h, and the changes of protein levels of enzymes related to fatty acid and nucleic acid biosynthetic pathway were investigated by Western Blot (WB).
Human glioma cell strain (U87MG) was respectively cultured in the medium containing 1.6 mM of trisodium fructose-1,6-bisphosphate for 24 h and 36 h, and then a level of 5-hydroxymethylcytosine (5-hmC) was measured by an immunocytochemistry method.

KNS-89 = test: Glutathiones and NADPH/NADP+ (LC-MS/MS); assay type: cell-based, human; conditions: KNS-89, 1.6 mM, 36 h
Procedure: (§2) Rat glioma cell strain (C6) and human glioma cell strain (KNS-89, SHG-44) were respectively cultured in a medium containing 1.6 mM of trisodium fructose-1,6-bisphosphate for 36 h, and important antioxidants in cells were measured by liquid-mass spectrometry (LC-MS/MS).

SHG-44 = test: Glutathiones and NADPH/NADP+ (LC-MS/MS); assay type: cell-based, human; conditions: SHG-44, 1.6 mM, 36 h
Procedure: as §2

HCT-8 = test: Cell viability, Sulforhodamine B (SRB) staining; assay type: cell-based, human; conditions: Homo sapiens, HCT-8, 72 h, FBP 0.8 mM
Procedure: (§3) Human intestinal cancer cell strains SW620 and HCT-8, which had been incubated for 24 hours, were respectively incubated in a medium containing 0.8 mM of trisodium fructose-1,6-bisphosphate, a medium containing 0.2 mM of metformin/100 μM of sitagliptin, and a medium containing 0.8 mM of trisodium fructose-1,6-bisphosphate and 0.2 mM of metformin/100 μM of sitagliptin for 72 h. A control group (Con) was not treated with the agent. Cell viability was determined by Sulforhodamine B (SRB) staining analysis method.

Huh-7 = test: Cell viability, Sulforhodamine B (SRB) staining; assay type: cell-based, human; conditions: Homo sapiens, Huh-7, 72 h, FBP 0.8 mM
Procedure: (§4) Human liver cancer cell strains Bel-7402 and huh-7, which had been incubated for 24 hours, were respectively incubated in a medium containing 1.6 mM or 0.8 mM of trisodium fructose-1,6-bisphosphate, a medium containing 0.2 mM of metformin or 25 μM of sitagliptin, and a medium containing 0.8 mM of trisodium fructose-1,6-bisphosphate and 0.2 mM of metformin/25 μM of sitagliptin for 72 h. A control group (Con) was not treated with the agent. Cell viability was determined by Sulforhodamine B (SRB) staining analysis method.

[5] = system: mouse liver cancer cells H22; test: Tumor growth of mouse liver cancer H22 model; assay type: in vivo, ICR mice; conditions: FBP 500 mg/kg, i.g., 7 days; for Tumor weight: three times per day
Procedure: The treatment was performed three times per day, in which metformin or sitagliptin was administrated 0.5 h before trisodium fructose-1,6-bisphosphate. This is repeated for 7 days, and situations of the animals during the experiments were observed. The animals were sacrificed 24 hours after the last treatment, the tumor masses were taken out and weighed, and the average tumor weight in each group of animals was used as an efficacy index.

[6] = Weight gain and fat accumulation caused by high-fat diet; assay type: in vivo, ICR mice; conditions: high-fat diet mice
Procedure: 40 ICR male mice (17-19 g/per mouse) were divided into 2 groups. […] The animals of the normal group (Naive) were still fed with the basic feed, and the model animals were equally divided into 4 groups and were further fed with the high-fat diet. In addition, according to the amount of water the mice had consumed, a certain dose of the agent was dissolved in drinking water. The animals in the model group (Model) were fed with the purified water, the animals in the fructose-1,6-bisphosphate group were fed with water containing 0.18% of 8-molecule hydrate of sodium fructose-1,6-bisphosphate (equivalent to FBP 300 mg/kg), the animals in the sitagliptin group were fed with water containing 0.012% of sitagliptin phosphate salt (equivalent to STG 20 mg/kg), and the animals in the combination group were fed with water containing FBP 500 mg/kg+STG 20 mg/kg. The treatment lasted continuously for 6 weeks, the body weight, food intake and water intake were measured per week, the body weight and body length (CM) were measured on the last day of the last week, and a Lee's INDEX (Lee's INDEX=body weight (g)^(1/3) * 1000/body length (cm)) was calculated to evaluate the state of animal obesity. Then, the animals were sacrificed by cervical vertebra dislocation and the mice were dissected, the epididymal fat pad was taken and weighed, and a fat coefficient was calculated to further investigate the degree of obesity of the mice.

mouse tumor models = conditions: injected intraperitoneally; cited from earlier work
SW620 = test: cells; conditions: Homo sapiens, SW-620, 72 h
Procedure: as §3

Bel-7402 = test: cells; conditions: Homo sapiens, Bel-7402, 72 h, read-out: cell viability inhibited
Procedure: as §4

## O=C(COP(=O)(O)O)[C@@H](O)[C@H](O)[C@H](O)COP(=O)(O)O [FBP, fructose-1,6-bisphosphate]
Glioma cells SHG-44; SHG-44, 0.8 mM, 12 h
  Relative levels of lactic acid (compared with the control group): 1.06 ± 0.05
Glioma cells SHG-44; SHG-44, 0.8 mM, 24 h
  Relative levels of lactic acid (compared with the control group): 0.87 ± 0.01
Glioma cells SHG-44; SHG-44, 0.8 mM, 36 h
  Relative levels of lactic acid (compared with the control group): 0.83 ± 0.05
Glioma cells SHG-44; SHG-44, 1.6 mM, 12 h
  Relative levels of lactic acid (compared with the control group): 0.89 ± 0.09
Glioma cells SHG-44; SHG-44, 1.6 mM, 24 h
  Relative levels of lactic acid (compared with the control group): 0.75 ± 0.07
Glioma cells SHG-44; SHG-44, 1.6 mM, 36 h
  Relative levels of lactic acid (compared with the control group): 0.58 ± 0.06
C6; C6, 0.8 mM or 1.6 mM, 36 h
  ratio of ATP/ADP (CON = 1.00): 10.89 ± 1.37
  ratio of NADH/NAD+ (CON = 1.00): 7.76 ± 0.59
C6; C6, 36 h, vs control group
  ATP level: significantly increased
U87MG [1]
  glycine (Gly) (M+2) produced by serine, relative to control group 1: 0.63±0.06
  serine (Ser) (M+3) produced by U-13C-Glc, relative to control group 1: 1.57±0.04
U87MG [1]; CON 13.03 ± 0.38
  Proportions of 13C-labeled ribose in free nucleosides and nucleotides, column F6P: 2.79 ± 0.14
U87MG [1]; CON 31.97 ± 1.11
  Proportions of 13C-labeled ribose in free nucleosides and nucleotides, column GAP: 11.31 ± 1.75
U87MG [1]; CON 41.00 ± 4.28
  Proportions of 13C-labeled ribose in free nucleosides and nucleotides, column FBP: 34.99 ± 1.63
U87MG [1]; CON 59.40 ± 1.11
  Proportions of 13C-labeled ribose in free nucleosides and nucleotides, column PEP: 13.71 ± 0.54
U87MG [1]; CON 61.60 ± 1.95
  Proportions of 13C-labeled ribose in free nucleosides and nucleotides, column Lac: 30.70 ± 2.11
U87MG [1]; control group 68.96±5.03%
  proportion of the 13C-labeled 5-phosphate ribose (R5P): 17.32±1.23%
U87MG [1]; U-13C-Glc
  Relative level of F6P (compared with the control group): 2.06 ± 0.04
  Relative level of FBP (compared with the control group): 5.01 ± 0.34
  Relative level of GAP (compared with the control group): 4.27 ± 0.07
  Relative level of Lac (compared with the control group): 1.06 ± 0.02 ^N.S.
  Relative level of PEP (compared with the control group): 8.00 ± 0.32
U87MG [2]
  Relative level of Asp (compared with the control group): 0.16 ± 0.07
  Relative level of Glu (compared with the control group): 0.35 ± 0.04
  Relative level of OAA (compared with the control group): 1.87 ± 0.04
  Relative level of α-KG (compared with the control group): 1.61 ± 0.01
U87MG [2]; CON 12.41 ± 1.19
  Proportion of 13C-labeled purine/pyrimidine ring in A: 7.70 ± 1.50
U87MG [2]; CON 20.58 ± 2.30
  Proportion of 13C-labeled purine/pyrimidine ring in U: 8.33 ± 0.90
U87MG [2]; CON 38.26 ± 1.50
  Proportion of 13C-labeled purine/pyrimidine ring in ATP: 23.77 ± 0.57
U87MG [2]; CON 50.67 ± 0.96
  Proportion of 13C-labeled purine/pyrimidine ring in UTP: 18.19 ± 0.87
U87MG [2]; CON 53.75 ± 1.47
  Proportion of 13C-labeled purine/pyrimidine ring in G: 41.83 ± 4.06
U87MG [3]; cytoplasm
  Relative level of Ac-CoA (compared with the control group): 0.02 ± 0.01
  Relative level of Cit (compared with the control group): 0.28 ± 0.01
  Relative level of OAA (compared with the control group): 0.19 ± 0.01
  Relative level of α-KG (compared with the control group): 1.20 ± 0.12*^
U87MG [3]; mitochondria
  Relative level of Ac-CoA (compared with the control group): 1.38 ± 0.11
  Relative level of Cit (compared with the control group): 1.02 ± 0.06
  Relative level of OAA (compared with the control group): 2.02 ± 0.13
  Relative level of α-KG (compared with the control group): 2.42 ± 0.04
U87MG [4]
  epigenetic related proteins of tumor cells (Ac-Foxo, H3K9ac, H3K9me2): quickly down-regulated
  protein levels of malate shuttle-related enzymes (ME1, MDH1, MDH2, GOT1, GOT2): decreased significantly over time
U87MG [4]; 0-48 h, Western Blot
  protein levels of enzymes related to fatty acid and nucleic acid biosynthesis (CAD, TS, ACL, FASN): decreased significantly over time
U87MG [4]; 24 h and 36 h, immunocytochemistry
  level of 5-hydroxymethylcytosine (5-hmC): significantly increased
KNS-89
  Relative content of GSH (compared with the control group): 0.01 ± 0.00
  Relative content of GSSG (compared with the control group): 0.33 ± 0.02
  Relative ratio of NADPH to NADP+ (compared with the control group): 0.44 ± 0.04
SHG-44
  Relative content of GSH (compared with the control group): 0.67 ± 0.01
  Relative content of GSSG (compared with the control group): 0.38 ± 0.01
  Relative ratio of NADPH to NADP+ (compared with the control group): 0.39 ± 0.01
HCT-8; STG 100 μM, read-out: cell viability (Con = 100)
  viability at 800 µM: 85.9 ± 3.29%
HCT-8; sitagliptin 100 μM, read-out: cell viability inhibited
  cytotoxicity at 800 µM: 41%
Huh-7; STG 25 μM, read-out: cell viability (Con = 100)
  viability at 800 µM: 80.4 ± 3.63%
Huh-7; sitagliptin 25 μM, read-out: cell viability inhibited
  cytotoxicity at 800 µM: 20%
[5]; H22, metformin experiment, Met 150 mg/kg, Con 1.66 ± 0.29
  Tumor weight: 0.91 ± 0.23 g
[5]; H22, sitagliptin experiment, STG 20 mg/kg, Con 1.48 ± 0.34
  Tumor weight: 0.67 ± 0.28 g
[5]; H22, metformin 150 mg/kg, sitagliptin 20 mg/kg
  inhibition of tumor growth (inhibition ratio): 54.39%
[6]; 6 weeks, model group 3.96±0.83%, normal group 1.58±0.68%
  fat coefficient (epididymal fat pad): 2.81±0.81%
[6]; 6 weeks, model group 353.28±9.64, normal group 337.05±9.96
  Lee's INDEX: 326.14±11.10
[6]; agents in drinking water, FBP 300 mg/kg, STG 20 mg/kg, combination FBP 500 mg/kg+STG 20 mg/kg, model group 47.89±3.34
  body weight after 6 weeks: 45.93 ± 5.1 g
Mouse tumor models
  effective dose for mouse tumor models: 400-450 mg/kg/time
SW620; read-out: cell viability (Con = 100)
  viability at 800 µM: 49.9 ± 3.91%
SW620; read-out: cell viability inhibited
  cytotoxicity at 800 µM: 41%
Bel-7402
  cytotoxicity at 800 µM: 41%
